Like-named read-outs stand apart in the source and are kept apart here.
Key:
[1] = parameters: method as in Mozzicafreddo et al. ([2006]); details: ref Mozzicafreddo et al. ([2006]); cited from earlier work
[2] = biological target: T1, human thrombin (Homo sapiens, UniProt P00734); experiment: Amidolytic activity of thrombin (hydrolysis of chromogenic substrate D-Phe-Pip-Arg-pNA); type: biochemical; parameters: Thrombin, also known as an active plasma coagulation factor II; purchased Sigma-Aldrich Chemical Co. (St. Louis, MO, USA) T7009; host or cells: purified from human plasma; details: at 375 μM substrate concentration; compounds 0.1–1,000 μM, preincubation 10 min 37 °C; read-out: IC50, amidolytic activity of human thrombin
Procedure: (§1) All tested compounds were dissolved in 50 % DMSO to the initial concentration of 10 mM; other solutions of compounds were also prepared in 50 % DMSO (prepared in 50 mM TBS, pH 7.4). The final concentration of DMSO in thrombin samples was 5 %. To prepare thrombin control samples, the same volume of solvent (50 % DMSO prepared in 50 mM TBS, pH 7.4) was added as in the case of the compound volume and warmed for 10 min to 37 °C.
To each reaction well, 40 μl of 3 mM chromogenic substrate was added. To initiate the chromogenic reaction, 280 μl of control thrombin (without tested compounds) or thrombin after preincubation with a polyphenolic compound to every reaction well in the same moment was added. The absorbance value was monitored every 12 s for 10 min. The maximal velocity of the reaction (V max, Δm OD/min) for each absorbance curve was determined. IC50 value (parameter) for every polyphenolic compound from inhibition curves was estimated.

[3] = test system: human thrombin; experiment: Thrombin-induced platelet aggregation (turbidimetric); type: cell-based; details: compound 50 μM preincubated with thrombin
Procedure: Blood samples in 0.32 % sodium citrate from healthy volunteers without cardiovascular disorders were collected, untreated with antiplatelet drugs. […] Platelets were isolated from PRP using BSA–Sepharose 2B gel filtration method according to Walkowiak et al. ([2000]). […] In these preparations, to nine volumes of thrombin one volume of polyphenolic compounds was added (final thrombin concentration was 15.8 nM). All tested compounds were dissolved in 50 % DMSO to the initial concentration of 10 mM; other solutions of compounds were also prepared in 50 % DMSO (prepared in 50 mM TBS, pH 7.4). […] The platelet aggregation was measured by turbidimetric method (Saluk-Juszczak et al., [2007]) using dual-channel Chrono-log optical aggregometer (Chronolog, USA). […] Platelet suspensions were pre-warmed at 37 °C with stirring.

[4] = biological target: T1, human thrombin; experiment: BIAcore (SPR) analysis of binding to immobilized thrombin; parameters: Thrombin, also known as an active plasma coagulation factor II; purchased Sigma-Aldrich Chemical Co. (St. Louis, MO, USA) T7009
Procedure: The biosensor assays were performed using the BIAcore 1000 biosensor system. All biosensor analyses were performed with a phosphate-buffered saline (PBS), pH 7.4, as a running buffer. […] The immobilization of thrombin on a biosensor carboxylmethyl dextran surface was performed according to the BIA applications Handbook (BIAcore, [1994]). The process of protein immobilization was performed on a sensor chip CM5 surface by the positively charged functional groups of protein amino acids. The immobilization process consisted of four steps: preconcentration, activation, ligand immobilization and deactivation of the residual NHS esters. […] The temperature during the whole experiment was also constant and was set to 25.0 °C. […] Each of these solutions (10 μl) was injected into an empty sensor chip channel. […] The amount of injected activation mixture was modified, to regulate the amount of immobilized ligand. […] The conditions of the latter experiments were established by numerous pre-tests. The assessed parameters included: the buffer flow rate, the volume of analyte injection, the concentration of analytes, types and concentration of regenerators. […] For each injection of analyte solution, the volume used was 100 μl. After injection of analyte was completed, the dissociation step occurred and the level of the interaction ligand-analyte was measured. During dissociation, the particles non-covalently bound to the ligand were washed out from the working channel. […] To do these calculations, the formulas presented below were used: the association rate […]]; the dissociation rate -d[AB]/dt=kd·[AB]; the equilibrium constants: KA=[AB]/[A]·[B]=ka/kd KD=[A]·[B]/[AB]=kd/ka.

[5] = biological target: T1, human thrombin; experiment: SDS-PAGE analysis of thrombin-induced cross-linked fibrin formation; type: biochemical; parameters: Thrombin, also known as an active plasma coagulation factor II; purchased Sigma-Aldrich Chemical Co. (St. Louis, MO, USA) T7009; host or cells: purified from human plasma
Procedure: as §1, with “In these preparations, to nine volumes of thrombin one volume of polyphenolic compounds was added (final thrombin concentration was 15.8 nM). All” for “All”
The reactions incubated at 37 °C were stopped after 5, 15 and 30 min by adding 150 μl of lysis buffer (0.125 M Tris/HCl, 4 % SDS, 8 M urea, 10 % β-mercaptoethanol, pH 6.8). Samples were subjected to SDS-PAGE (polyacrylamide concentration—7.5 %) using Mini-Protean Electrophoresis Cell (Bio-Rad, Hercules, CA). Proteins were stained with Coomassie Brilliant Blue R250 (CBB).

## O=c1c(O)c(-c2ccc(O)c(O)c2)oc2cc(O)cc(O)c12 [Quercetin, quercetin]
[1]
  Concentration with anti-clotting effect (prolonged thrombin time): ≥ 100 µM
[2]
  IC50: 1500 nM
[3]
  Platelet aggregation, % of control: 4%
[4]
  K A, equilibrium association constant: 2.59 × 10^7 M^–1
[4]; 5 sensorgrams, 50 to 1,000 μM
  K A, equilibrium association constant: 2.59e+07 M⁻¹
[4]; 5 sensorgrams, 50 to 1,000 μM, read-out: K D, equilibrium dissociation constant
  Kd: 38.7 nM
[4]; 5 sensorgrams, 50 to 1,000 μM, read-out: k a, association rate
  kon: 43.2 M⁻¹ s⁻¹
[4]; 5 sensorgrams, 50 to 1,000 μM, read-out: k d, dissociation rate
  koff: 1.67e-06 s⁻¹
[4]; analyte 1,000 μM, thrombin immobilized on CM5 chip
  Response (RU): 1,882 RU
[5]; at IC50 concentration of amidolytic inhibition: cyanidin […], quercetin 1.5 μM
  Effect on formation of γ–γ chains and α-polymers: also inhibited the formation of γ–γ chains and α-polymers
[5]; ten times IC50: cyanidin […], quercetin 15 μM, silybin 250 μM
  Effect on formation of γ–γ chains and α-polymers: significantly inhibited the formation of γ–γ chains and α-polymers

Reference: paper PMC3939009, “Thrombin inhibitory activity of some polyphenolic compounds” (Medicinal Chemistry Research, 2013)
